Data set [1] has as its system E-box-LUC reporter. The experiment in a line: E-box-LUC luciferase reporter assay, dose-response in stably transfected NIH3T3 cells. Type of data set: cell-based. The conditions noted are these: Mus musculus, E-box-LUC reporter activity, NIH3T3, 36 h; for Emax: maximum response as a percentage of the vehicle-treated group, read-out: Max (%). The protocol:
(§1) Materials for cell culture were purchased from Thermo Fisher Scientific, unless otherwise stated. NIH3T3 and HEK293T cells were maintained in Dulbecco’s modified Eagle medium supplemented with 5% fetal bovine serum and 100 U/mL penicillin/streptomycin in a humidified atmosphere containing 5% CO2 at 37 °C. Plasmids and transfection experiments for luciferase reporter assay were described in our previous report. For dose-response experiments, mouse NIH3T3 cells stably transfected with an E-box-LUC reporter were plated in 12-well culture plates, treated as indicated for 36 h, and subjected to luciferase assay. For transient transfections, we seeded HEK293T cells in 12-well culture plates and used Lipofectamine® 3000 reagent to transfect cells with the E-box-LUC reporter and the indicated clock gene expression plasmids together with a thymidine kinase promoter-driven Renilla luciferase (pRL-TK) plasmids. We kept total DNA levels constant by adding an empty pcDNA3.1 plasmid. After 24 h of transfection, cells were treated with vehicle (0.1% DMSO) or chemical compounds at various concentrations for 36 h. Cell extracts were prepared by incubating cells in 0.3 mL reporter lysis buffer for 15 min at room temperature. Luciferase activity was measured with a commercial dual luciferase assay kit (Promega, Madison, WI, USA).
(§2) The EC50 values for luciferase reporter assay were calculated based on a logistic four-parametric equation using the mean values of intrinsic activation (SigmaPlot 10.0; Systat Software Inc., San Jose, CA, USA). The IC50 and t1/2 values for the cytochrome P450 inhibition assay and metabolic stability test were calculated by WinNonlin software (Pharsight, Mountain View, CA, USA). Pharmacokinetic parameters were calculated using non-compartmental analysis (WinNonlin v.8.3; Pharsight, Mountain View, CA, USA). Kinetic and equilibrium constants for SPR analysis were obtained by global fitting of the Langmuir 1:1 bimolecular kinetic model (ProteOn Manager v.3.1.0.6, Bio-Rad, Hercules, CA, USA). Circadian molecular clock-enhancing activities were expressed as means ± SE and statistically evaluated by Student’s t-test or one-way analysis of variance (ANOVA) followed by Newman–Keuls multiple comparison test for post hoc comparisons. The significance level for the analyses was set at p < 0.05.
On the technique in general: Reporter assays use an easily measured gene product as a stand-in for the process of interest.

Data set [2] in a line: Metabolic stability test in pooled human liver microsomes. The conditions noted are these: pooled HLMs 1.0 mg/mL, 1 μM compound, NADPH generating system, read-out: t1/2 in HLMs. The data set is classed as in vitro ADME. Here is the method:
The metabolic stability of KS15, 5d, or 2d was evaluated using pooled HLMs. Pooled HLMs (1.0 mg/mL), a potassium phosphate buffer, and a test compound (1 μM) were pre-incubated (37 °C, 5 min). To initiate the reaction, the NADPH generating system was added to the samples and incubated for specific time points (0, 5, 15, 20, 45, and 60 min). Then, aliquots were taken and reactions terminated in acetonitrile containing IS. After centrifugation, supernatants were analyzed using LC-MS/MS to determine KS15, 5d, or 2d concentrations in samples. Analyte separation was performed using a Kinetex C18 column (100 mm × 2.1 mm, 2.6 μm ID., Phenomenex). The mobile phase solvent A was 0.1% formic acid in water, and solvent B was 0.1% formic acid in acetonitrile. Gradient separation was performed as follows: 0–3 min (10–90% B) and 3.1–8 min (10% B). The flow rate was 0.2 mL/min, and the run time was 8 min for each sample. Electrospray ionization was conducted in positive ion mode at 4 kV. […] Quantitation was performed in the SRM of the [M+H]^+ ion and the related product ion for each test compound and IS: KS-15 (m/z 420 > 169, CE 30 eV), 5d (m/z 359 > 206, CE 20 eV), 2d (m/z 345 > 192, CE 22 eV), and IS (m/z 295 > 100, CE 17 eV).
as §2, with “Kinetic and equilibrium constants for SPR analysis were obtained by global fitting of the Langmuir 1:1 bimolecular kinetic model (ProteOn Manager v.3.1.0.6, Bio-Rad, Hercules, CA, USA).” left out, “The significance level for the analyses was set at p < 0.05.” left out
On the technique in general: Liver microsomes are a subcellular fraction often used to study metabolism.

The test system of data set [3] is Per2-luciferase knock-in (Per2-Luc-KI) fibroblast cultures. Briefly: Real-time bioluminescence monitoring of DEX-synchronized Per2-Luc-KI fibroblast cultures. The conditions noted are these: 20 μM, DEX-synchronized Per2-Luc-KI fibroblasts. Type of data set: cell-based, mouse. Here is the method:
For real-time bioluminescence monitoring, we used mouse embryonic fibroblast (MEF) cultures established from Per2-LUC-KI mice. […] The medium was then replaced with a recording medium containing 0.1 mM D-luciferin (Promega) along with vehicle (0.1% DMSO), KS15 (20 μM), 5d (20 μM), or 2d (20 μM). Light emission for 2 min at intervals of 20 min was integrated using a dish-type wheeled luminometer (Kronos-Dio, ATTO Cooperation, Tokyo, Japan). Background-subtracted bioluminescence profiles were analyzed using Cosinor analysis software (available at http://www.circadian.org, last accessed on 19 May 2021).
as §2

Data set [4] deals with T1, hCRY1 (Homo sapiens, UniProt Q16526).
T1 sequence (Q16526 1-586): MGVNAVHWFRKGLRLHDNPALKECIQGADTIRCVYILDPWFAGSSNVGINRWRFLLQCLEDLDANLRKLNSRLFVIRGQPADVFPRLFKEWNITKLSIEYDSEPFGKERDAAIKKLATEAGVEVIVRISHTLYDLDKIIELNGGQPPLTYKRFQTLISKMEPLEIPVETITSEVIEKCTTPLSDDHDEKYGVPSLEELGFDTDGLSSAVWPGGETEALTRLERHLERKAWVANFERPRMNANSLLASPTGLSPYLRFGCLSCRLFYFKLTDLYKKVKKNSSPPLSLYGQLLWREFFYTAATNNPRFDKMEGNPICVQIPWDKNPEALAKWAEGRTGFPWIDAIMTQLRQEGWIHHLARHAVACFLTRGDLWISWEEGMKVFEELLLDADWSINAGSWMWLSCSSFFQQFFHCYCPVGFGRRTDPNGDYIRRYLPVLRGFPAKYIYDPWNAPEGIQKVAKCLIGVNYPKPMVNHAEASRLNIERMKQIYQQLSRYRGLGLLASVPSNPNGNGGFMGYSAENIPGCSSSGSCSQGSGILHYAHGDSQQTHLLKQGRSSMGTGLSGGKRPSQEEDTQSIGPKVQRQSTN
Briefly: Suppressive action of CRY1 on CLOCK:BMAL1-activated E-box-LUC reporter activity in transiently transfected HEK293T cells. More on the design: expressed in transfected cells; host or cells: HEK293T. The data set is classed as cell-based. Particulars: co-expression of human CRY1, 36 h treatment. The protocol:
as §1

A value given as a limit tells only on which side of the number the result lay.

The text below walks through data of paper PMC8225008, “Development of Non-Ethoxypropanoic Acid Type Cryptochrome Inhibitors with Circadian Molecular Clock-Enhancing Activity by Bioisosteric Replacement” (Pharmaceuticals, 2021).

The term EC50 denotes the concentration needed to bring the measured effect to its halfway point.

On to `CC(=NOCc1ccc([N+](=O)[O-])cc1)c1cccc(OCC(=O)O)c1` [Compound 2d, 2-(3-(1-(((4-nitrobenzyl)oxy)imino)ethyl)phenoxy)acetic acid], for which, in data set [1], the EC50 came out at 10.2 µM and the Emax stood at 161%. Besides, the half-life at 1 μM in data set [2] was over 60 min. Moreover, in data set [3], the “Amplitude of cyclic Per2 expression” value is listed as “significantly augmented the amplitude” and the “Robustness of the rhythm (Cosinor regression)” value is listed as “barely affect the robustness”. The “Effect on CRY1-suppressed CLOCK:BMAL1-activated E-box-mediated transcription” value in data set [4] is listed as “dose-dependently restored E-box-mediated transcriptional activities”.

Consider `COC(=O)COc1cccc(C(C)=NOCc2ccc([N+](=O)[O-])cc2)c1` [Compound 5d, Methyl 2-(3-(1-(((4-nitrobenzyl)oxy)imino)ethyl)phenoxy)acetate], for which, in data set [1], the midpoint of the response, the EC50, lay at 6.44 µM and the Emax stood at 193%. For the same molecule, in data set [2], the half-life at 1 μM came out at 2.4 min. Besides, in data set [3], the “Amplitude of cyclic Per2 expression” value is listed as “significantly augmented the amplitude” and the “Robustness of the rhythm (Cosinor regression)” value is recorded as “barely affect the robustness”. The “Effect on CRY1-suppressed CLOCK:BMAL1-activated E-box-mediated transcription” value in data set [4] is “dose-dependently restored E-box-mediated transcriptional activities”.
